According to patent publication EP0326329B1, “Quinazoline derivatives useful as insecticides” (Dow AgroSciences LLC, priority 1988, dated 1989):

tested on: melon aphids (Aphis gossypii Glover); assay: Mite/insect screen, sprayed squash cotyledons (MA); type: in vivo; settings: Aphis gossypii, percent mortality; spray rate 200 ppm; read-out: MA RESULTS %
Procedure, shortened: (§1)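 Percent mortality and phytotoxicity are the read-outs, assessed after standard exposure periods. Test solutions, made in 50:50 acetone/alcohol with two sulfonate/nonionic emulsifier blends and diluted in water, are sprayed to runoff on both leaf surfaces, which then dry for one hour.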

Compound | mortality at 200 ppm [%]
c1ccc2c(CCOc3ncnc4ccccc34)cccc2c1 [Example 91, 4-[2-(1-naphthyl)ethoxy]quinazoline] | 0
CC(C)(C)c1ccc(CCOc2ncnc3c(F)cccc23)cc1 [Example 94, 8-fluoro-4-[2-[4-(t-butyl)phenyl]ethoxy]quinazoline] | 80
Fc1cccc2c(OCCc3ccccc3)ncnc12 [Example 95, 8-fluoro-4-(2-phenylethoxy)quinazoline] | 80

same assay, conditions: Aphis gossypii, percent mortality; spray rate 400 ppm; read-out: MA RESULTS %

Compound | mortality at 400 ppm [%]
c1ccc2cc(CCOc3ncnc4ccccc34)ccc2c1 [Example 80, 4-[2-(2-naphthyl)ethoxy]quinazoline] | 100
c1ccc2c(CCOc3ncnc4ccccc34)cccc2c1 [Example 91, 4-[2-(1-naphthyl)ethoxy]quinazoline] | 0
CC(C)(C)c1ccc(CCOc2ncnc3c(F)cccc23)cc1 [Example 94, 8-fluoro-4-[2-[4-(t-butyl)phenyl]ethoxy]quinazoline] | 0
Fc1cccc2c(OCCc3ccccc3)ncnc12 [Example 95, 8-fluoro-4-(2-phenylethoxy)quinazoline] | 0

same assay, conditions: percent mortality; spray rate 200 ppm

Compound | MA RESULTS % [%]
Fc1cccc2c(OCCc3ccc(-c4ccccc4)cc3)ncnc12 [Example 93, 8-fluoro-4-[2-(1,1'-biphenyl)-4-ylethoxy]quinazoline] | 80

same assay, conditions: percent mortality; spray rate 400 ppm

Compound | MA RESULTS % [%]
Fc1cccc2c(OCCc3ccc(-c4ccccc4)cc3)ncnc12 [Example 93, 8-fluoro-4-[2-(1,1'-biphenyl)-4-ylethoxy]quinazoline] | 0

tested on: Puccinia recondita tritici (leaf rust); assay: Greenhouse Test 1, foliar spray fungicide screen (LEAF RUST), host wheat; type: in vivo; settings: disease control rating, 400 ppm (+++ at 100 ppm)

Compound | LEAF RUST
c1ccc2cc(CCOc3ncnc4ccccc34)ccc2c1 [Example 80, 4-[2-(2-naphthyl)ethoxy]quinazoline] | +++ (+++ = 90-100% control at 100 ppm)
c1ccc2c(CCOc3ncnc4ccccc34)cccc2c1 [Example 91, 4-[2-(1-naphthyl)ethoxy]quinazoline] | + (+ = 20-89% control at 400 ppm)
Fc1cccc2c(OCCc3ccc(-c4ccccc4)cc3)ncnc12 [Example 93, 8-fluoro-4-[2-(1,1'-biphenyl)-4-ylethoxy]quinazoline] | +++ (+++ = 90-100% control at 100 ppm)
CC(C)(C)c1ccc(CCOc2ncnc3c(F)cccc23)cc1 [Example 94, 8-fluoro-4-[2-[4-(t-butyl)phenyl]ethoxy]quinazoline] | +++ (+++ = 90-100% control at 100 ppm)
Fc1cccc2c(OCCc3ccccc3)ncnc12 [Example 95, 8-fluoro-4-(2-phenylethoxy)quinazoline] | +++ (+++ = 90-100% control at 100 ppm)

tested on: Pyricularia oryzae (rice blast); assay: not given; type: in vivo; settings: disease control rating, foliar spray, host rice; 400 ppm (+++ at 100 ppm)

Compound | RICE BLAST
c1ccc2cc(CCOc3ncnc4ccccc34)ccc2c1 [Example 80, 4-[2-(2-naphthyl)ethoxy]quinazoline] | +++ (+++ = 90-100% control at 100 ppm)
c1ccc2c(CCOc3ncnc4ccccc34)cccc2c1 [Example 91, 4-[2-(1-naphthyl)ethoxy]quinazoline] | ++ (++ = 90-100% control at 400 ppm)
Fc1cccc2c(OCCc3ccc(-c4ccccc4)cc3)ncnc12 [Example 93, 8-fluoro-4-[2-(1,1'-biphenyl)-4-ylethoxy]quinazoline] | +++ (+++ = 90-100% control at 100 ppm)
CC(C)(C)c1ccc(CCOc2ncnc3c(F)cccc23)cc1 [Example 94, 8-fluoro-4-[2-[4-(t-butyl)phenyl]ethoxy]quinazoline] | +++ (+++ = 90-100% control at 100 ppm)
Fc1cccc2c(OCCc3ccccc3)ncnc12 [Example 95, 8-fluoro-4-(2-phenylethoxy)quinazoline] | - (- = 0-19% control at 400 ppm)

tested on: Erysiphe graminis tritici (powdery mildew); assay: Greenhouse Test 1, foliar spray fungicide screen (POWD MDEW), host wheat; type: in vivo; settings: disease control rating, 400 ppm (+++ at 100 ppm)

Compound | POWD MDEW
c1ccc2cc(CCOc3ncnc4ccccc34)ccc2c1 [Example 80, 4-[2-(2-naphthyl)ethoxy]quinazoline] | +++ (+++ = 90-100% control at 100 ppm)
c1ccc2c(CCOc3ncnc4ccccc34)cccc2c1 [Example 91, 4-[2-(1-naphthyl)ethoxy]quinazoline] | + (+ = 20-89% control at 400 ppm)
Fc1cccc2c(OCCc3ccc(-c4ccccc4)cc3)ncnc12 [Example 93, 8-fluoro-4-[2-(1,1'-biphenyl)-4-ylethoxy]quinazoline] | +++ (+++ = 90-100% control at 100 ppm)
CC(C)(C)c1ccc(CCOc2ncnc3c(F)cccc23)cc1 [Example 94, 8-fluoro-4-[2-[4-(t-butyl)phenyl]ethoxy]quinazoline] | +++ (+++ = 90-100% control at 100 ppm)
Fc1cccc2c(OCCc3ccccc3)ncnc12 [Example 95, 8-fluoro-4-(2-phenylethoxy)quinazoline] | +++ (+++ = 90-100% control at 100 ppm)

tested on: Pseudoperonospora cubensis (downy mildew); assay: Greenhouse Test 1, foliar spray fungicide screen (DOWN MDEW), host squash; type: in vivo; settings: disease control rating, 400 ppm (+++ at 100 ppm)

Compound | DOWN MDEW
c1ccc2cc(CCOc3ncnc4ccccc34)ccc2c1 [Example 80, 4-[2-(2-naphthyl)ethoxy]quinazoline] | +++ (+++ = 90-100% control at 100 ppm)
c1ccc2c(CCOc3ncnc4ccccc34)cccc2c1 [Example 91, 4-[2-(1-naphthyl)ethoxy]quinazoline] | ++ (++ = 90-100% control at 400 ppm)
Fc1cccc2c(OCCc3ccc(-c4ccccc4)cc3)ncnc12 [Example 93, 8-fluoro-4-[2-(1,1'-biphenyl)-4-ylethoxy]quinazoline] | +++ (+++ = 90-100% control at 100 ppm)
CC(C)(C)c1ccc(CCOc2ncnc3c(F)cccc23)cc1 [Example 94, 8-fluoro-4-[2-[4-(t-butyl)phenyl]ethoxy]quinazoline] | +++ (+++ = 90-100% control at 100 ppm)
Fc1cccc2c(OCCc3ccccc3)ncnc12 [Example 95, 8-fluoro-4-(2-phenylethoxy)quinazoline] | +++ (+++ = 90-100% control at 100 ppm)

tested on: Southern corn rootworm (Diabrotica undecimpuctata howardi Barber); assay: Mite/insect screen, soil treatment (CRW); type: in vivo; settings: Diabrotica; percent mortality; soil treatment, CRW rate 12.00 ppm; read-out: CRW RESULTS %
Procedure, shortened: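 Compounds dissolved in acetone/alcohol (50:50) with Toximul R/S emulsifiers, diluted with water. Soil (15 g, with presoaked corn seed) treated with 1 mL test solution, dried 6–12 h, then five 2–3 instar larvae added; held at 23°C. Percent mortality and phytotoxicity scored after standard exposure periods.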

Compound | mortality at 12 ppm [%]
c1ccc2c(CCOc3ncnc4ccccc34)cccc2c1 [Example 91, 4-[2-(1-naphthyl)ethoxy]quinazoline] | 0
CC(C)(C)c1ccc(CCOc2ncnc3c(F)cccc23)cc1 [Example 94, 8-fluoro-4-[2-[4-(t-butyl)phenyl]ethoxy]quinazoline] | 0
Fc1cccc2c(OCCc3ccccc3)ncnc12 [Example 95, 8-fluoro-4-(2-phenylethoxy)quinazoline] | 0

same assay, conditions: Diabrotica; percent mortality; soil treatment, CRW rate 24.00 ppm; read-out: CRW RESULTS %

Compound | mortality at 24 ppm [%]
c1ccc2cc(CCOc3ncnc4ccccc34)ccc2c1 [Example 80, 4-[2-(2-naphthyl)ethoxy]quinazoline] | 100
c1ccc2c(CCOc3ncnc4ccccc34)cccc2c1 [Example 91, 4-[2-(1-naphthyl)ethoxy]quinazoline] | 0
CC(C)(C)c1ccc(CCOc2ncnc3c(F)cccc23)cc1 [Example 94, 8-fluoro-4-[2-[4-(t-butyl)phenyl]ethoxy]quinazoline] | 0
Fc1cccc2c(OCCc3ccccc3)ncnc12 [Example 95, 8-fluoro-4-(2-phenylethoxy)quinazoline] | 0

same assay, conditions: percent mortality; soil treatment, CRW rate 12.00 ppm

Compound | CRW RESULTS % [%]
Fc1cccc2c(OCCc3ccc(-c4ccccc4)cc3)ncnc12 [Example 93, 8-fluoro-4-[2-(1,1'-biphenyl)-4-ylethoxy]quinazoline] | 0

same assay, conditions: percent mortality; soil treatment, CRW rate 24.00 ppm

Compound | CRW RESULTS % [%]
Fc1cccc2c(OCCc3ccc(-c4ccccc4)cc3)ncnc12 [Example 93, 8-fluoro-4-[2-(1,1'-biphenyl)-4-ylethoxy]quinazoline] | 0

tested on: southern armyworm (Spodopetra eridania Cramer); assay: Mite/insect screen, sprayed squash leaves (SAW); type: in vivo; settings: Spodoptera eridania, percent mortality; spray rate 200 ppm; read-out: SAW RESULTS %
Procedure, shortened: as §1

Compound | mortality at 200 ppm [%]
c1ccc2c(CCOc3ncnc4ccccc34)cccc2c1 [Example 91, 4-[2-(1-naphthyl)ethoxy]quinazoline] | 0
CC(C)(C)c1ccc(CCOc2ncnc3c(F)cccc23)cc1 [Example 94, 8-fluoro-4-[2-[4-(t-butyl)phenyl]ethoxy]quinazoline] | 100
Fc1cccc2c(OCCc3ccccc3)ncnc12 [Example 95, 8-fluoro-4-(2-phenylethoxy)quinazoline] | 0

same assay, conditions: Spodoptera eridania, percent mortality; spray rate 400 ppm; read-out: SAW RESULTS %

Compound | mortality at 400 ppm [%]
c1ccc2cc(CCOc3ncnc4ccccc34)ccc2c1 [Example 80, 4-[2-(2-naphthyl)ethoxy]quinazoline] | 0
c1ccc2c(CCOc3ncnc4ccccc34)cccc2c1 [Example 91, 4-[2-(1-naphthyl)ethoxy]quinazoline] | 0
CC(C)(C)c1ccc(CCOc2ncnc3c(F)cccc23)cc1 [Example 94, 8-fluoro-4-[2-[4-(t-butyl)phenyl]ethoxy]quinazoline] | 100
Fc1cccc2c(OCCc3ccccc3)ncnc12 [Example 95, 8-fluoro-4-(2-phenylethoxy)quinazoline] | 0

same assay, conditions: percent mortality; spray rate 200 ppm

Compound | SAW RESULTS % [%]
Fc1cccc2c(OCCc3ccc(-c4ccccc4)cc3)ncnc12 [Example 93, 8-fluoro-4-[2-(1,1'-biphenyl)-4-ylethoxy]quinazoline] | 100

same assay, conditions: percent mortality; spray rate 400 ppm

Compound | SAW RESULTS % [%]
Fc1cccc2c(OCCc3ccc(-c4ccccc4)cc3)ncnc12 [Example 93, 8-fluoro-4-[2-(1,1'-biphenyl)-4-ylethoxy]quinazoline] | 100

tested on: Twospotted spider mites (Tetranychus urticae Koch); assay: Mite/insect screen, sprayed squash cotyledons (SM); type: in vivo; settings: Tetranychus urticae, percent mortality; spray rate 200 ppm; read-out: SM RESULTS %
Procedure, shortened: as §1

Compound | mortality at 200 ppm [%]
c1ccc2c(CCOc3ncnc4ccccc34)cccc2c1 [Example 91, 4-[2-(1-naphthyl)ethoxy]quinazoline] | 0
CC(C)(C)c1ccc(CCOc2ncnc3c(F)cccc23)cc1 [Example 94, 8-fluoro-4-[2-[4-(t-butyl)phenyl]ethoxy]quinazoline] | 100
Fc1cccc2c(OCCc3ccccc3)ncnc12 [Example 95, 8-fluoro-4-(2-phenylethoxy)quinazoline] | 0

same assay, conditions: Tetranychus urticae, percent mortality; spray rate 400 ppm; read-out: SM RESULTS %

Compound | mortality at 400 ppm [%]
c1ccc2cc(CCOc3ncnc4ccccc34)ccc2c1 [Example 80, 4-[2-(2-naphthyl)ethoxy]quinazoline] | 100
c1ccc2c(CCOc3ncnc4ccccc34)cccc2c1 [Example 91, 4-[2-(1-naphthyl)ethoxy]quinazoline] | 0
CC(C)(C)c1ccc(CCOc2ncnc3c(F)cccc23)cc1 [Example 94, 8-fluoro-4-[2-[4-(t-butyl)phenyl]ethoxy]quinazoline] | 0
Fc1cccc2c(OCCc3ccccc3)ncnc12 [Example 95, 8-fluoro-4-(2-phenylethoxy)quinazoline] | 0

same assay, conditions: percent mortality; spray rate 200 ppm

Compound | SM RESULTS % [%]
Fc1cccc2c(OCCc3ccc(-c4ccccc4)cc3)ncnc12 [Example 93, 8-fluoro-4-[2-(1,1'-biphenyl)-4-ylethoxy]quinazoline] | 80

same assay, conditions: percent mortality; spray rate 400 ppm

Compound | SM RESULTS % [%]
Fc1cccc2c(OCCc3ccc(-c4ccccc4)cc3)ncnc12 [Example 93, 8-fluoro-4-[2-(1,1'-biphenyl)-4-ylethoxy]quinazoline] | 0

tested on: Botrytis cinerea (gray mold); assay: Greenhouse Test 1, foliar spray fungicide screen (GRAY MOLD), host grape berries; type: in vivo; settings: disease control rating, 400 ppm (+++ at 100 ppm)

Compound | GRAY MOLD
c1ccc2cc(CCOc3ncnc4ccccc34)ccc2c1 [Example 80, 4-[2-(2-naphthyl)ethoxy]quinazoline] | - (- = 0-19% control at 400 ppm)
c1ccc2c(CCOc3ncnc4ccccc34)cccc2c1 [Example 91, 4-[2-(1-naphthyl)ethoxy]quinazoline] | - (- = 0-19% control at 400 ppm)
Fc1cccc2c(OCCc3ccc(-c4ccccc4)cc3)ncnc12 [Example 93, 8-fluoro-4-[2-(1,1'-biphenyl)-4-ylethoxy]quinazoline] | - (- = 0-19% control at 400 ppm)
CC(C)(C)c1ccc(CCOc2ncnc3c(F)cccc23)cc1 [Example 94, 8-fluoro-4-[2-[4-(t-butyl)phenyl]ethoxy]quinazoline] | - (- = 0-19% control at 400 ppm)
Fc1cccc2c(OCCc3ccccc3)ncnc12 [Example 95, 8-fluoro-4-(2-phenylethoxy)quinazoline] | - (- = 0-19% control at 400 ppm)
